Experimental findings from BindingDB's records for doi:10.1021/acs.jmedchem.6b00247 (Sanford Burnham Prebys Medical Discovery Institute, 2016) are described below.

Structures are written as SMILES.

The nature of the test: Antagonist activity against HIV-1 Vif in human CEM cells assessed as inhibition of viral infection.

With `COc1ccccc1NC(=O)c1ccccc1Sc1ccc([N+](=O)[O-])cc1`, the IC50 stood at 4.5 µM.

The IC50 is the concentration needed to halve the response being measured.
